Data from US20180185374A1, “INHIBITORS OF MTOR KINASE AS ANTI-VIRAL AGENTS” (THE TRUSTEES OF PRINCETON UNIVERSITY, priority 2009, published 2018).

Legend:
HCMV [1] = assay: GFP marker expression from viral genome, percentage of infected cells; format: cell-based, human cytomegalovirus; conditions: 24 hpi; 250 nM
Method: FIG. 2. […] Serum-starved confluent fibroblasts were infected with HCMV at a multiplicity of 3 PFU/cell. […] Control cultures received the vehicle in which Torin1 was dissolved (NT). At 2 hpi cells were harvested, and cell-associated viral DNA was quantified by real-time PCR analysis. Error bars represent the standard errors of the means from two independent experiments performed in duplicate. […] The level of IE1 was determined at 6 hpi by a Western blot assay using an IE1-specific monoclonal antibody. The image is representative of two independent experiments. […] The expression of a GFP marker gene present in the viral genome was monitored at 24 h after infection in the presence or absence of drug.

HCMV [2] = assay: HCMV DNA accumulation by qPCR; format: cell-based, human cytomegalovirus; conditions: 96 hpi; Torin1 250 nM; 0.05 PFU/cell
Method: FIG. 3. […] (A) Rapamycin-resistant mTOR activity is required for the accumulation of an some but not all HCMV proteins. […] Cells were harvested at the indicated times, and the accumulation of the indicated proteins was analyzed by Western blotting. […] At the indicated times DNA was isolated, and viral DNA was quantified by qPCR. Equivalent amounts of DNA were analyzed for each sample, and the results are normalized to the level of actin DNA per sample. […] At the indicated times the amount of UL99 RNA was determined by qPCR, and the results are normalized to the amount of actin RNA in each sample.
Determination of viral DNA and transcript accumulation in infected cells. The accumulation of viral DNA during HCMV infection was monitored by quantitative PCR (qPCR) as described previously (Terhune, et al. (2007) J. Virol. 81:3109-3123).
Briefly, primary human fibroblasts were infected with BADinGFP at a multiplicity of 0.05 PFU/cell. At the indicated times, cells were harvested by scraping them into medium and were stored as frozen cell pellets until analysis. Cell pellets were resuspended in 500 μl of a solution containing 400 mM NaCl, 10 mM Tris (pH 7.5), and 10 mM EDTA. […] For each sample, DNA was quantified by using a NanoDrop spectrophotometer (Thermo Scientific). […]
Viral DNA accumulation was measured by quantitative real-time PCR of fibroblasts treated with rapamycin or Torin1. […]

MCMV = MCMV replication in MEFs, cell-free virus by TCID50; format: cell-based, murine cytomegalovirus; conditions: Torin1 250 nM
rpS6 = rpS6 phosphorylation in MCMV-infected MEFs, Western blot; format: cell-based, mouse; conditions: 48 hpi; rapamycin 20 nM, Torin1 250 nM, LY294002 20 μM
Method: FIG. 5. […] Fresh serum-free medium containing drugs was added every other day. At the indicated times, cell-free supernatants were harvested, and the amount of virus in the supernatant was quantified by the TCID50 method. Error bars represent the standard errors of the means form two independent experiments performed in duplicate. […] At 48 hpi the phosphorylation state of the indicated mTORC1 targets was analyzed by a Western blot assay by using antibodies to phosphorylated targets (4EBP1-PT^37/46 and rpS6-PS^235/6) and total proteins. The results are representative of three independent experiments.
The identification of the functional roles of proteins in the mTOR signaling pathway has been facilitated by the generation of knockout mouse strains lacking individual mTOR components. For example, the availability of murine embryonic fibroblasts (MEFs) lacking the essential mTORC2 component Rictor led to the definitive identification of mTORC2 as the kinase complex responsible for the complete activation of Akt. We used murine cytomegalovirus (MCMV) and several MEF lines deficient for mTOR signaling pathway components to test for a possible contribution of mTORC2 to rapamycin-resistant phosphorylation events. […] Also as observed for HCMV (FIG. 4A), MCMV infection induced mTORC1 activity, as measured by the increased phosphorylation of rpS6. […]

eIF4F complex = assay: m7G-Sepharose cap-binding assay, MCMV-infected MEFs; format: cell-based, mouse; conditions: Torin1 250 nM, 48 hpi
Method: FIG. 7. […] At 6 days post infection the amount of MCMV in cell-free supernatants was determined by the TCID50 method. The error bars represent the standard errors of the means from three independent experiments, each performed in duplicate. […] At 48 hpi equal amounts of protein from cell lysates were incubated with m^7G-Sepharose. The presence of eIF4F complex components bound by the cap analog was determined by Western blotting. The results are representative of two independent experiments.
We first investigated the requirement for mTORC2 for the replication of MCMV. […] Finally, the cells were confirmed to lack an intact Rictor locus when assayed by PCR (FIG. 6C). We also employed Akt1/Akt2-null MEFs to evaluate a possible role for the Akt kinase, one of the targets of mTORC2. […] Again, the cells were confirmed to lack Akt by Western blot assay (FIG. 6F). […] 4EBP1 functions to inhibit eIF4F complex assembly unless inactivated by mTORC1-mediated phosphorylation. […] Finally, that 4EBP1 was not detected in lysates of these cells by Western blot assay confirmed the phenotype of the MEFs.

SMILES: CCC(=O)N1CCN(c2ccc(-n3c(=O)ccc4cnc5ccc(-c6cnc7ccccc7c6)cc5c43)cc2C(F)(F)F)CC1 [Torin1]
- percentage of cells expressing GFP marker (HCMV [1]): did not alter the percentage of cells
- reduction of viral DNA accumulation (HCMV [2]): 150 fold
- MCMV replication (MCMV; 4EBP1-null MEFs, rapamycin 20 nM, 6 days post infection): no longer capable of inhibiting
- MCMV replication (MCMV; Akt1/Akt2-null MEFs): Torin-sensitive
- MCMV replication (MCMV; Rictor-null MEFs, 6 days post infection): effectively inhibited
- MCMV replication (MCMV; wild-type MEFs, 0.05 PFU/cell, rapamycin 20 nM): inhibited MCMV replication
- phosphorylation of rpS6 in MCMV-infected MEFs (rpS6): completely inhibited
- formation of the eIF4F complex (eIF4F complex; 4EBP1-null MEFs): no such effect was observed
- formation of the eIF4F complex (eIF4F complex; control MEFs): inhibited the formation of the eIF4F complex
